Consider 1 sequence from publication PMC7913925, “Design and Evaluation of a Polypeptide That Mimics the Integrin Binding Site for EDA Fibronectin to Block Profibrotic Cell Activity” (International Journal of Molecular Sciences, 2021).

For assay [1], the system named is F-actin in NIH/3T3 fibroblasts. The experiment in a line: F-actin staining. Type of assay: cell-based, mouse. The following applies: 48 h, TGF-β1 10 ng/mL, AF38Pep 10 µg/mL. The protocol:
Cells were grown to 40% confluence in 8-well glass chamber slides (Nunc, Thermo Fisher Scientific), prior to growth arrest and treatment. Cells were washed with PBS before fixation in 4% paraformaldehyde for 10 min at room temperature. Next, cells were permeabilized with 0.1% (v/v) Triton X-100 in PBS for 10 min at room temperature. For visualization of ECM, cells were fixed with 100% ice-cold methanol for 8 min at −20 °C. Slides were washed with PBS and blocked with 1% goat serum (TBD Science, Tianjin, China) for 30 min before washing with 0.1% (w/v) BSA in PBS. Subsequently, slides were incubated with monoclonal mouse anti-α-SMA antibody (Sigma-Aldrich, 1:50) diluted in 0.1% BSA-PBS, overnight at 4 °C. After further wash steps, slides were incubated with goat anti-mouse IgG CF-488 secondary antibody (Abcam, 1:1000) in 0.1% BSA-PBS for 1 h at room temperature and under darkness. For F-actin visualization, after fixation and permeabilization; cells were incubated with phalloidin conjugated to FITC (Sigma-Aldrich) in 0.1% BSA-PBS, overnight at 4 °C. Cells were then mounted in DAPI Fluoromount-G (Thermo Fisher Scientific) and imaged using a Zeiss Axio Imager Z1 UV fluorescence microscope (Zeiss, Jena, Germany) and a Leica TCS SP5 laser scanning confocal microscope (Leica Biosystems, Baden-Württemberg, Germany).

The test system of assay [2] is Tgfb1 mRNA in NIH/3T3 fibroblasts. Nature of the assay: qRT-PCR Tgfb1 mRNA. Type of assay: cell-based, mouse. The following applies: 48 h, TGF-β1 10 ng/mL. The method, then: (§1) Reverse transcription (RT) and real-time quantitative PCR (qRT-PCR) were used to assess ACTA2/Acta2, Col1a1, Col3a1, Fn1, Eda-Fn1, Mmp9, Tgfb1, Ltbp1, Hic5, and Mrtfa mRNA expressions. Custom PCR primers were designed in-house (Table 2) and then synthesized by BGI (Beijing, China). Cells were grown in 6-well culture plates and washed with phosphate buffered saline (PBS) before lysis with TRIzon Reagent (CWBio, Beijing, China) and total RNA purification according to the manufacturer’s protocol. Reverse transcription was carried using the TransScript First-Strand cDNA Synthesis SuperMix kit according to the manufacturer’s protocol (TransGen, Beijing, China), using the random primer method for the initiation of cDNA synthesis. Nuclease-free H2O replaced the RNA sample to serve as a negative control for the reverse transcription reaction. For qRT-PCR, 10 µL 2× TransStart Top Green qPCR SuperMix was added to each well of a 96-well PCR plate containing 0.4 µL forward primer, 0.4 µL reverse primer, […], and nuclease-free water to a total volume of 20 µL. The qRT-PCR reaction was completed using a CFX96 Real-Time PCR Detection System (Bio-Rad Laboratories, Hercules, CA, USA). Amplification used the following parameters: 94 °C for 30 s, followed by 40 cycles of 94 °C for 5 s, 55 °C for 15 s, 72 °C for 10 s, and then a dissociation stage (melt-curve). […]
A general note: Real-time PCR tracks product formation cycle by cycle.

Assay [3] relates to mouse NIH/3T3 dermal fibroblast cells, α-SMA mRNA. Nature of the assay: α-SMA mRNA expression (qRT-PCR) in TGF-β1-treated NIH/3T3. It is filed as cell-based. The method, then: (§2) HFL1 cells were cultured in Kaighn’s modified Ham’s F-12 (F-12K) medium (Sigma-Aldrich) containing NaHCO3 and HEPES buffered to pH 7. Cells were grown to confluence in T75 culture flasks in the presence of 10% fetal bovine serum (FBS; Gibco, Thermo Fisher Scientific, Waltham, MA, USA). HFL1 cells were subcultured using 0.05% trypsin at a ratio of 1:3. NIH/3T3 cells were cultured in Dulbecco’s Modified Eagle Medium (DMEM; HyClone, Thermo Fisher Scientific) containing 100 U/mL penicillin and 100 μg/mL streptomycin. Cells were grown to confluence in T75 culture flasks in the presence of 10% FBS. NIH/3T3 cells were subcultured using 0.05% trypsin/EDTA at a ratio of 1:3. All cells were maintained at 37 °C and 5% CO2, and growth medium was replenished every 3 days until experimentation. Cells were growth-arrested in serum-free medium for 48 h before experiments, and all experiments were performed under serum-free conditions using cells between passages 3 and 8.
as §1, with “µL.” for “µL. The qRT-PCR reaction was completed using a CFX96 Real-Time PCR Detection System (Bio-Rad Laboratories, Hercules, CA, USA). Amplification used the following parameters: 94 °C for 30 s, followed by 40 cycles of 94 °C for 5 s, 55 °C for 15 s, 72 °C for 10 s, and then a dissociation stage (melt-curve).”

In assay [4] the test system is human HFL1 lung fibroblast cells, α-SMA mRNA. Nature of the assay: α-SMA mRNA expression (qRT-PCR) in TGF-β1-treated HFL1. Type of assay: cell-based. The method, then:
as §2
Reverse transcription (RT) and real-time quantitative PCR (qRT-PCR) were used to assess ACTA2/Acta2, Col1a1, Col3a1, Fn1, Eda-Fn1, Mmp9, Tgfb1, Ltbp1, Hic5, and Mrtfa mRNA expressions. Custom PCR primers were designed in-house (Table 2) and then synthesized by BGI (Beijing, China). […]

A further assay has as its system Col3a1 mRNA. Nature of the assay: qRT-PCR Col3a1 mRNA. Type of assay: cell-based, mouse. The method, then:
as §1

Assay [5] has as its system NIH/3T3 cells, total collagen. Nature of the assay: Hydroxyproline assay, total collagen synthesis. The following applies: 48 h, TGF-β1 + AF38Pep; % of cells that only received TGF-β1. It is filed as cell-based, mouse. The method, then: Approximately 4 × 10^6 of TGF-β1- and/or AF38Pep-treated NIH/3T3 fibroblast cells were harvested and homogenized in 1:1 conditioned medium to HCl (10N), before incubation at 120 °C for 24 h or until complete sample hydrolyzation. Cell-associated and soluble collagen contents were assessed using the Chondrex Hydroxyproline Assay kit (Chondrex, Redmond, WA, USA) according to the manufacturer’s protocol. In brief, 10 µL of sample, standard or blank control solution was added in duplicate to a 96-well clear-bottomed absorbance plate. Next, 100 µL of 1× chloramine-T solution was added to the wells and incubated at room temperature (RT) for 20 min. After incubation, 100 µL 1× DMAB solution was added to the wells and incubated at 60 °C for 30 min, with mild agitation at 5 min intervals. The plate O.D. values were read at 540 nm and sample values were compared to the values of the standard curve. The total collagen content was determined using the following equation:Collagen level (µg/mL) = Hydroxyproline level (µg/mL) × (100/13.5)

The subject of assay [6] is Hic5 mRNA in NIH/3T3 fibroblasts. The experiment in a line: qRT-PCR Hic5 mRNA. It is filed as cell-based, mouse. The following applies: 48 h, TGF-β1 10 ng/mL. The method, then:
as §1

Assay [7] has as its system Mmp9 mRNA in NIH/3T3 fibroblasts. Nature of the assay: qRT-PCR Mmp9 mRNA. Type of assay: cell-based, mouse. The following applies: 48 h, TGF-β1 10 ng/mL. The protocol:
as §1

Bridges are numbered along the chain shown (N, C = ends). Where no end group is shown, it is not given here.

Take “VMPYISTTPAKPCTSENCGNSWYGGFKSKNENKIYFIN (disulfide 13-18 (inferred)) [AF38Pep]”: the F-actin fiber assembly result in assay [1] is “cellular actin reassembly into F-actin fibers still occurred”. The “TGF-β1 mRNA expression” value in assay [2] is given as “attenuated”. For the same sequence, the “attenuation of TGF-β1-induced α-SMA mRNA” value was “significantly attenuated gene induction at 48 h in all concentrations tested” in assay [3] (NIH/3T3, 48 h, all concentrations tested (log10 dilution range)); “only AF38Pep treatment at a concentration of 10 µg/mL was sufficient to significantly attenuate the α-SMA mRNA upregulation” in assay [3] (NIH/3T3, 72 h, 10 µg/mL); “not able to effectively inhibit the differentiation response over the 72 h duration of treatment” in assay [3] (NIH/3T3, 72 h, 0.1–1 µg/mL); “significantly reduced by 0.1–10 µg/mL peptide at 48 h” in assay [4] (HFL1, 48 h, 0.1–10 µg/mL); “only 10 µg/mL was sufficient for inhibition of expression at 72 h” in assay [4] (HFL1, 72 h, 10 µg/mL). Besides, the “collagen type III mRNA expression” value with Col3a1 mRNA (72 h, TGF-β1 + AF38Pep) is on record as “all inhibited”; with Col3a1 mRNA (by 48 h, vs TGF-β1-only), “significant attenuation”. In addition, the “total collagen synthesis relative to TGF-β1 only” value in assay [5] is reported as “approximately 60%”. Further, the “HIC5 mRNA expression” value in assay [6] is on record as “attenuated”. Besides, the “MMP9 mRNA expression” value in assay [7] was “attenuated”.
